Legend:
Format in all cases: in vivo
[1] = system: Euschistus heros (Neotropical Brown Stink Bug); test: Euschistus heros (Neotropical Brown Stink Bug) soybean leaf spray test; settings: 120 h, application rate of 200 ppm, soybean leaves sprayed, N2 nymphs, 5 days after infestation, read-out: effect in at least one of the two categories (mortality or growth inhibition)
Description: Soybean leaves on agar in 24-well microtiter plates were sprayed with aqueous test solutions prepared from 10,000 ppm DMSO stock solutions. After drying the leaves were infested with N2 nymphs. The samples were assessed for mortality and growth inhibition in comparison to untreated samples 5 days after infestation.

[2] = system: Diabrotica Balteata (Corn Root Worm); test: Diabrotica balteata (Corn Root Worm) maize sprout spray test; settings: 96 h, application rate of 200 ppm, maize sprouts sprayed, L2 larvae, 4 days after infestation, read-out: effect in at least one of the two categories (mortality or growth inhibition)
Description: Maize sprouts placed onto an agar layer in 24-well microtiter plates were treated with aqueous test solutions prepared from 10,000 ppm DMSO stock solutions by spraying. After drying, the plates were infested with L2 larvae (6 to 10 per well). The samples were assessed for mortality and growth inhibition in comparison to untreated samples 4 days after infestation.

[3] = system: Plutella xylostella (Diamond Back Moth); test: Plutella xylostella (Diamond Back Moth) artificial diet test; settings: 120 h, application rate of 200 ppm, L2 larvae, 5 days after infestation, read-out: effect in at least one of the two categories (mortality or growth inhibition)
Description: 24-well microtiter plates with artificial diet were treated with aqueous test solutions prepared from 10,000 ppm DMSO stock solutions by pipetting. After drying, the plates were infested with L2 larvae (10 to 15 per well). The samples were assessed for mortality and growth inhibition in comparison to untreated samples 5 days after infestation.

[4] = system: Frankliniella occidentalis (Western Flower Thrips); test: Frankliniella occidentalis (Western Flower Thrips): Feeding/Contact Activity; settings: foliar, 168 h, application rate of 200 ppm, sunflower leaf discs sprayed, population of mixed ages, 7 days after infestation
Description: Sunflower leaf discs were placed on agar in 24-well microtiter plates and sprayed with aqueous test solutions prepared from 10,000 DMSO stock solutions. After drying the leaf discs were infested with a Frankliniella population of mixed ages. The samples were assessed for mortality 7 days after infestation.

[5] = system: Myzus persicae (Green Peach Aphid); test: Myzus persicae (Green Peach Aphid): Feeding/Contact Activity; settings: foliar, 144 h, application rate of 200 ppm, sunflower leaf discs sprayed, aphid population of mixed ages, 6 days after infestation
Description: Sunflower leaf discs were placed onto agar in a 24-well microtiter plate and sprayed with aqueous test solutions prepared from 10,000 ppm DMSO stock solutions. After drying, the leaf discs were infested with an aphid population of mixed ages. The samples were assessed for mortality 6 days after infestation.

[6] = system: Myzus persicae (Green Peach Aphid); test: Myzus persicae (Green Peach Aphid). Systemic Activity; settings: 144 h, test rate of 24 ppm, roots of infested pea seedlings in test solution, 6 days
Description: Roots of pea seedlings infested with an aphid population of mixed ages were placed directly into aqueous test solutions prepared from 10,000 DMSO stock solutions. The samples were assessed for mortality 6 days after placing seedlings into test solutions.

[7] = system: Spodoptera littoralis (Egyptian Cotton Leaf Worm); test: Spodoptera littoralis (Egyptian Cotton Leaf Worm) systemic lettuce test; settings: 144 h, test rate of 12.5 ppm, compound in agar taken up by lettuce roots, eggs, 6 days after infestation, read-out: effect in at least one of the three categories (mortality, anti-feeding, or growth inhibition)
Description: Test compounds were applied by pipette from 10,000 ppm DMSO stock solutions into 24-well plates and mixed with agar. Lettuce seeds were placed onto the agar and the multi well plate was closed by another plate which contained also agar. After 7 days the compound was absorbed by the roots and the lettuce grew into the lid plate. The lettuce leaves were then cut off into the lid plate. Spodoptera eggs were pipetted through a plastic stencil onto a humid gel blotting paper and the lid plate was closed with it. The samples were assessed for mortality, anti-feedant effect and growth inhibition in comparison to untreated samples 6 days after infestation.

[8] = system: Bemisia tabaci (Cotton White Fly); test: Bemisia tabaci (Cotton White Fly): Feeding/Contact Activity; settings: foliar, 144 h, application rate of 200 ppm, cotton leaf discs sprayed, adult white flies, 6 days after incubation
Description: Cotton leaf discs were placed on agar in 24-well microtiter plates and sprayed with aqueous test solutions prepared from 10,000 ppm DMSO stock solutions. After drying the leaf discs were infested with adult white flies. The samples were checked for mortality 6 days after incubation.

CCSc1cc(C2(C#N)CC2)cnc1-c1nc2cc(C(F)(F)F)nnc2n1C [Example H-2, 1-[5-ethylsulfanyl-6-[7-methyl-3-(trifluoromethyl)imidazo[4,5-c]pyridazin-6-yl]-3-pyridyl]cyclopropanecarbonitrile]
≥ 80%: percent effect (mortality or growth inhibition) at 200 ppm [1] | percent effect (mortality or growth inhibition) at 200 ppm [2] | percent effect (mortality or growth inhibition) at 200 ppm [3] | mortality at 200 ppm [4]

CCS(=O)(=O)c1cc(C2(C#N)CC2)cnc1-c1nc2cc(C(F)(F)F)nnc2n1C [Example H-1, 1-[5-Ethylsulfonyl-6-[7-methyl-3-(trifluoromethyl)imidazo[4,5-c]pyridazin-6-yl]-3-pyridyl]cyclopropanecarbonitrile]
≥ 80%: percent effect (mortality or growth inhibition) at 200 ppm [1] | percent effect (mortality or growth inhibition) at 200 ppm [2] | mortality at 200 ppm [5] | percent effect (mortality or growth inhibition) at 200 ppm [3] | mortality at 24 ppm [6] | percent effect (mortality, anti-feeding or growth inhibition) at 12.5 ppm [7] | mortality at 200 ppm [8] | mortality at 200 ppm [4]
